Results: US20170369444A1, “INHIBITORS OF HISTONE DEMETHYLASES” (Gilead Sciences, Inc., priority 2014, published 2017)

What was measured:
[1] = target: T1, KDM6A (UTX) (Homo sapiens, UniProt O15550); experiment: Histone lysine demethylase AlphaLISA assay, KDM6A; type: biochemical; details: in vitro enzyme, read-out: KDM6A IC50 (HDME Inhibition)
T1 construct: 919-1401; host or cells: E. coli

[2] = target: T2, KDM4C (JMJD2C) (Homo sapiens, UniProt Q9H3R0); experiment: Histone lysine demethylase AlphaLISA assay, KDM4C; type: biochemical; details: in vitro enzyme, read-out: KDM4C IC50 (HDME Inhibition)
T2 construct: 1-349; host or cells: E. coli
T2 sequence (Q9H3R0 1-349): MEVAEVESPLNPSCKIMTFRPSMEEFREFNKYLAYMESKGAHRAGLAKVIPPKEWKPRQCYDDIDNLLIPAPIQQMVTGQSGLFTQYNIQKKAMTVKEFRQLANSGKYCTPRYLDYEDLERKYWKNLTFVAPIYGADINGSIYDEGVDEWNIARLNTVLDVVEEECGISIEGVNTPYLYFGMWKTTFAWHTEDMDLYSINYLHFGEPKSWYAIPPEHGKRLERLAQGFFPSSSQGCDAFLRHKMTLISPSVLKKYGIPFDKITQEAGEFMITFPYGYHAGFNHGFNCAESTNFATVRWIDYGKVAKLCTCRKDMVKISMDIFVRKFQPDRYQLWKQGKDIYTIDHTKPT

[3] = target: T3, KDM5B (PLU-1) (Homo sapiens, UniProt Q9UGL1); experiment: Histone lysine demethylase AlphaLISA assay, KDM5B; type: biochemical; details: in vitro enzyme, read-out: KDM5B IC50 (HDME Inhibition)
T3 construct: 1-809; host or cells: E. coli
T3 sequence (Q9UGL1 1-809): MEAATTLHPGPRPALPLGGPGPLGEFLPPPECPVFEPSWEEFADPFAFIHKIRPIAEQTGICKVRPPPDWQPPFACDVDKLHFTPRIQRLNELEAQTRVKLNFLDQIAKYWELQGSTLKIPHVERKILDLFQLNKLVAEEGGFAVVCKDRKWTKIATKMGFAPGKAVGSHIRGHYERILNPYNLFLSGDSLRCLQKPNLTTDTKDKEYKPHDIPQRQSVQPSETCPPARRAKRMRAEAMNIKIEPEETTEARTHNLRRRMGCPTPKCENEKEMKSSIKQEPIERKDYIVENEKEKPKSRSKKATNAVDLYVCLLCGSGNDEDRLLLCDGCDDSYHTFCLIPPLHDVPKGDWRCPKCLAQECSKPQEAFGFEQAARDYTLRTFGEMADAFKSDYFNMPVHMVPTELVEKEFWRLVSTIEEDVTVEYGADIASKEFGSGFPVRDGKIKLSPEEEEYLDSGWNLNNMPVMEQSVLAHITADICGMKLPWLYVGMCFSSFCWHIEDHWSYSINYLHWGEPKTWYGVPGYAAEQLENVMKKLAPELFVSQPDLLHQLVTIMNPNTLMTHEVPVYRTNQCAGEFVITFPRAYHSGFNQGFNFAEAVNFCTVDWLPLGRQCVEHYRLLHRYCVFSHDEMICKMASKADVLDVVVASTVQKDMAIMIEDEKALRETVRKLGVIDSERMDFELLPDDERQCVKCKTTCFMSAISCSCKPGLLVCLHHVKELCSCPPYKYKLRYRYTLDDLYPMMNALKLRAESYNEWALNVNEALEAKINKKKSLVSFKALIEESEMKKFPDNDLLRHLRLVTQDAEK

[4] = target: PHF8 (KDM7) (Homo sapiens, UniProt Q9UPP1); experiment: Histone lysine demethylase AlphaLISA assay, PHF8; type: biochemical; details: in vitro enzyme, read-out: PHF8 IC50 (HDME Inhibition)
[5] = target: T4, KDM2B (FBXL10) (Homo sapiens, UniProt Q8NHM5); experiment: Histone lysine demethylase AlphaLISA assay, KDM2B; type: biochemical; details: in vitro enzyme, read-out: KDM2B IC50 (HDME Inhibition)
T4 construct: 1-650; purchased BPS Bioscience, US; host or cells: Bac (baculovirus/insect cells)
T4 sequence (Q8NHM5 1-650): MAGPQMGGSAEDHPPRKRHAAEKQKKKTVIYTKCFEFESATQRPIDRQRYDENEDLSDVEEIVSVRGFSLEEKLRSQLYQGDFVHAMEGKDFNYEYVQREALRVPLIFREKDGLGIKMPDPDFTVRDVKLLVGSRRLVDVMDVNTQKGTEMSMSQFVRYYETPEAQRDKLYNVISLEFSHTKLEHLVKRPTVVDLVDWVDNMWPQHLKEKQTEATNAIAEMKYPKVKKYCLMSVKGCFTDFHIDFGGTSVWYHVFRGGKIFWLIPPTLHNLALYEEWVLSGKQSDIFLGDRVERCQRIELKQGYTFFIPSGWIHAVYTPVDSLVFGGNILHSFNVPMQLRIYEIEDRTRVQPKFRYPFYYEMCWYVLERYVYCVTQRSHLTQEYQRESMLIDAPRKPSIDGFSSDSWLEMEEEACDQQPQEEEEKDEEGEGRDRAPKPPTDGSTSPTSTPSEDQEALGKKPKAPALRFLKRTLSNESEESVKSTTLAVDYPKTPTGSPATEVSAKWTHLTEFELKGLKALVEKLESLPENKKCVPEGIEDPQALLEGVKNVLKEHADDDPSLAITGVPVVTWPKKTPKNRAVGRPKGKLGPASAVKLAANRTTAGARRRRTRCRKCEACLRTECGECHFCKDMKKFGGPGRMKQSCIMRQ

[6] = system: H3K4me3 mark in U2OS cells; experiment: Histone lysine demethylase immunofluorescence assay, non-transfected U2OS cells; type: cell-based; details: Homo sapiens, 20 hours incubation, read-out: IC50 value, staining of the H3K4me3 mark in cells
Experimental: Generally, the cells are incubated with compounds, washed and incubated with a methylation specific antibody before imaging. IC50 values are determined by measurement of the H3K4me3 staining.
Histone Lysine Demethylase Immunofluorescence Assays for IC50 value Determination, non-transfected cells
U2OS cells are harvested and seeded into multi well plates into media containing compound. The media is DMEM containing 5% FBS and pen/strep. 20 hours after incubation of cells with compounds, the cells are washed once in PBS, harvested by fixation with formaldehyde 4% aqueous solution, and washed in PBS. Subsequently, the cells are permeabilized in PBS with 0.2% Triton X-100. Blocking is performed in PBS with 0.2% Triton X-100 and 5% FBS. The cells are incubated with αH3K4me3 primary antibody (Cell Signaling, #9751S) in blocking solution over night at 4° C. After incubation with primary antibody, the cells are washed with PBS, incubated with secondary antibody (Alexa fluor 594 goat anti rabbit IgG, Invitrogen, A11012) and Hoechst, (Sigma, 33342) in blocking solution, and washed again with PBS. Finally, PBS is added and high throughput imaging and analysis are performed by an IN Cell Analyzer 1000 (GE Healthcare). IC50 values are determined based on an average measure of the staining of the H3K4me3 mark in cells.

PHF8 (KDM7), sequence (Q9UPP1 whole entry): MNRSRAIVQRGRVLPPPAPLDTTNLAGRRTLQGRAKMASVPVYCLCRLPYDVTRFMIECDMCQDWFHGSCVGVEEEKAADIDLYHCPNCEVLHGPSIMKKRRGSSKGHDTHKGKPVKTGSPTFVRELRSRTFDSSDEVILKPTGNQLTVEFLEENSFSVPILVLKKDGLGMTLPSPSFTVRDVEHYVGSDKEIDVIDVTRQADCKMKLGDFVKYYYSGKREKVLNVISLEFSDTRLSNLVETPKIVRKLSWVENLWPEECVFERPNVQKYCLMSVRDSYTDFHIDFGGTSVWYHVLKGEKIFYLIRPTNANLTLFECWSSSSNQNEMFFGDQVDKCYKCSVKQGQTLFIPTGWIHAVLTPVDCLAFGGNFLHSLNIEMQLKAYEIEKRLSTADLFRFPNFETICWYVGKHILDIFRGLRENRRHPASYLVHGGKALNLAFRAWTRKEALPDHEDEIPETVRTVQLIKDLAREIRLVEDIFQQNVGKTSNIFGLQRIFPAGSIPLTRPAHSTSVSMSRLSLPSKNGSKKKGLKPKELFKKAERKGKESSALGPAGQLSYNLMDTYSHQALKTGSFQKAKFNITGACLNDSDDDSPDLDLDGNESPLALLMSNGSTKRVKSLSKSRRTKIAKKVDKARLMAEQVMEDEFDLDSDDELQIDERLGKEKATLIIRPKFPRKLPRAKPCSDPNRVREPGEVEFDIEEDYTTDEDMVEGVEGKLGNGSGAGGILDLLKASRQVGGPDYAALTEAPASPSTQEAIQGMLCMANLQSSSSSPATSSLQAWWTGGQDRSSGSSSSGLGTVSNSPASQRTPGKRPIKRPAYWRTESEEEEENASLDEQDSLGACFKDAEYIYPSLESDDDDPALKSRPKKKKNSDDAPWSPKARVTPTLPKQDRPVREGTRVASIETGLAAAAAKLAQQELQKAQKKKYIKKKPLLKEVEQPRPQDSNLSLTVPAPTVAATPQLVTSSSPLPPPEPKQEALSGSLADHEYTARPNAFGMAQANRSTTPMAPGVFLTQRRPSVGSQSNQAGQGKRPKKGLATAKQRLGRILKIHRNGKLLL
T1 sequence (O15550 919-1401): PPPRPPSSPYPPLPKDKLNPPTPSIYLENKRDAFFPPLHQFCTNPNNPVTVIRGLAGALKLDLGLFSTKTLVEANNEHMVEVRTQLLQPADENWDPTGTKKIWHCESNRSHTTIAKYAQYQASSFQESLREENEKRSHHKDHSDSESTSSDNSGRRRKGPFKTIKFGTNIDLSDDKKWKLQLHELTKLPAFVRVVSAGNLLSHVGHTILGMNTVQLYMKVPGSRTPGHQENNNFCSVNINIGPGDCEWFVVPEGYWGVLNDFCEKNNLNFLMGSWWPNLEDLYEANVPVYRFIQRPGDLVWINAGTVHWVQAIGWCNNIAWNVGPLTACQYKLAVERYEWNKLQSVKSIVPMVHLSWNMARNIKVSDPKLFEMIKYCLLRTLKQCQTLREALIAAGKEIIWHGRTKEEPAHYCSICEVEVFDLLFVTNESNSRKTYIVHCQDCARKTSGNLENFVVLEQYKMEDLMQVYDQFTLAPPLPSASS

NC(=O)CCN(CC(=O)N1CCCCC1)Cc1cc(C(=O)O)ccn1 [Compound 34, 2-{[(2-carbamoylethyl)[2-oxo-2-(piperidin-1-yl)ethyl]amino]methyl} pyridine-4-carboxylic acid]
IC50 [1]: > 2500 nM | IC50 [2]: 250 to 2500 nM | IC50 [3]: < 250 nM | IC50 [4]: 250 to 2500 nM | IC50 [5]: 250 to 2500 nM

COc1ccc([C@@H](C)N2CCC[C@@H](CNCc3cc(C(=O)O)ccn3)C2=O)cc1 [Compound 80, 2-[({[(3S)-1-[(1R)-1-(4-methoxyphenyl)ethyl]-2-oxopiperidin-3-yl]methyl}amino)methyl]pyridine-4-carboxylic acid]
IC50 [1]: > 2500 nM | IC50 [2]: 250 to 2500 nM | IC50 [3]: < 250 nM | IC50 [4]: 250 to 2500 nM | IC50 [5]: < 250 nM

C[C@H](c1ccccc1)N1CCC[C@@H](CNCc2cc(C(=O)O)ccn2)C1=O [Compound 14, 2-[({[(3S)-2-oxo-1-[(1R)-1-phenylethyl]piperidin-3-yl]methyl}amino)methyl]pyridine-4-carboxylic acid]
IC50 [1]: > 2500 nM | IC50 [2]: 250 to 2500 nM | IC50 [3]: < 250 nM | IC50 [4]: 250 to 2500 nM | IC50 [5]: 250 to 2500 nM

COc1ccc([C@@H](C)N2CCC[C@H](CNCc3cc(C(=O)O)ccn3)C2=O)cc1 [Compound 81, 2-[({[(3R)-1-[(1R)-1-(4-methoxyphenyl)ethyl]-2-oxopiperidin-3-yl]methyl}amino)methyl]pyridine-4-carboxylic acid]
IC50 [1]: > 2500 nM | IC50 [2]: 250 to 2500 nM | IC50 [3]: < 250 nM | IC50 [4]: 250 to 2500 nM | IC50 [5]: < 250 nM

O=C(N1CC2(CC2)COC1c1ccnc(CN2CCCn3ccnc3C2)c1)C(F)(F)F (stereo not shown) [Compound 108, 2,2,2-trifluoro-1-[6-(2-{5H,6H,7H,8H,9H-imidazo[1,2-a][1,4]diazepin-8-ylmethyl}pyridin-4-yl)-5-oxa-7-azaspiro[2.5]octan-7-yl]ethan-1-one]
IC50 [2]: 250 to 2500 nM | IC50 [3]: < 250 nM | IC50 [5]: 250 to 2500 nM | IC50 [6]: < 2500 nM

C[C@H](c1ccccc1)N1CCC[C@H](CNCc2cc(C(=O)O)ccn2)C1=O [Compound 2, 2-[({[(3R)-2-oxo-1-[(1R)-1-phenylethyl]piperidin-3-yl]methyl}amino)methyl]pyridine-4-carboxylic acid]
IC50 [1]: > 2500 nM | IC50 [2]: < 250 nM | IC50 [3]: < 250 nM | IC50 [4]: 250 to 2500 nM | IC50 [5]: < 250 nM

C[C@H](c1ccccc1)N1CC[C@@H](CNCc2cc(C(=O)O)ccn2)C1=O [Compound 17, 2-[({[(3S)-2-oxo-1-[(1R)-1-phenylethyl]pyrrolidin-3-yl]methyl}amino)methyl]pyridine-4-carboxylic acid]
IC50 [1]: > 2500 nM | IC50 [2]: 250 to 2500 nM | IC50 [3]: < 250 nM | IC50 [4]: 250 to 2500 nM | IC50 [5]: < 250 nM
